Experimental data published in patent US20210115044A1, “TRICYCLIC HETEROCYCLE COMPOUNDS USEFUL AS HIV INTEGRASE INHIBITORS” (Merck Sharp & Dohme Corp., priority 2018, published 2021).
Read-outs that look alike come from different tables or passages of the source.

System: HIV-1 (H9/IIIB strain)
Experiment: Multiple round HIV-1 infection assay in MT4-GFP cells (wild type cell assay, Viking)
Assay type: cell-based
Conditions: MT4-GFP cells infected with HIV-1 H9/IIIB, inhibition of reproductive ratio R0, ~48 h and ~72 h post-infection
Experimental: The antiviral activity of the Examples herein was assessed in an assay that measures the rate of replication of HIV in cell culture, and performed according to the following procedure. HIV-1 replication was monitored using MT4-gag-GFP clone D3 (hereafter designated MT4-GFP), which are MT-4 cells modified to harbor a GFP reporter gene, the expression of which is dependent on the HIV-1 expressed proteins tat and rev. Productive infection of an MT4-GFP cell with HIV-1 results in GFP expression approximately 24 h post-infection. MT4-GFP cells were maintained at 37° C./5% CO2/90% relative humidity in RPMI 1640 supplemented with 10% fetal bovine serum, 100 U/ml penicillin/streptomycin, and 400 μg/ml G418 to maintain the reporter gene. For infections, MT4-GFP cells were placed in the same medium lacking G418 and infected overnight with HIV-1 (H9/IIIB strain) virus at an approximate multiplicity of infection of 0.01 in the same incubation conditions. Cells were then washed and re-suspended in either RPMI 1640 at 2×10^5 cells/mL (0% NHS condition) or 100% normal human serum (NHS) at 2×10^5 cells/mL (100% NHS condition). Compound plates were prepared by dispensing compounds dissolved in DMSO into wells of 384 well poly-D-lysine-coated plates (0.2 μl/well) using an ECHO acoustic dispenser. Each compound was tested in a 10-point serial 3-fold dilution (typical final concentrations: 1050 nM-0.05 nM for 0% NHS condition or 42 μM-2.13 nM for 100% NHS condition). Controls included no inhibitor (DMSO only) and a combination of three antiviral agents (efavirenz, indinavir, an in-house integrase strand transfer inhibitor at final concentrations of 4 μM each). Cells were added ([…]) to compound plates and the infected cells were maintained at 37° C./5% CO2/90% relative humidity.
Infected cells were quantified at two time points, ˜48 h and ˜72 h post-infection, by counting the number of green cells in each well using an Acumen eX3 scanner. The increase in the number of green cells over ˜24 h period gives the reproductive ratio, R0, which is typically 5-15 and has been shown experimentally to be in logarithmic phase (data not shown). Inhibition of R0 is calculated for each well, and IC50s determined by non-linear 4-parameter curve fitting.

[1] = 0% NHS condition (RPMI 1640), read-out: WILD TYPE CELL ASSAY Viking IP (0% NHS)
[2] = 100% normal human serum condition, read-out: WILD TYPE CELL ASSAY Viking IP (100% NHS)
[3] = Human immunodeficiency virus 1, IIIB, 0% NHS condition (RPMI 1640), read-out: WILD TYPE CELL ASSAY Viking IP (0% NHS)

Structure (SMILES) | IC50 [1] [nM] | IC50 [2] [nM] | IC50 [3] [nM]
CC1C(O)c2c(C(=O)NCc3ccc(F)cc3F)c(=O)c(O)c3n2C1(C)CN(C)C3=O (single isomer, unassigned) [Compound 80] | 2.8 | 192 | –
CC1N(C)C(=O)c2c(O)c(=O)c(C(=O)NCc3ccc(F)cc3F)c3n2C1(C)CC3O (single isomer, unassigned) [Compound 70] | 1.2 | 26.3 | –
CN1CC2(C)CC(O)c3c(C(=O)NCc4c(F)ccc(Cl)c4F)c(=O)c(O)c(n32)C1=O (stereo not drawn) [Compound 32] | 2.1 | 55.7 | –
CCC12CC(O)c3c(C(=O)NCc4ccc(F)cc4F)c(=O)c(O)c(n31)C(=O)N(C)C2 (single isomer, unassigned) [Compound 37] | 2.2 | 547 | –
CC1C(O)c2c(C(=O)NCc3ccc(F)cc3F)c(=O)c(O)c3n2C1(C)CN(C)C3=O (single isomer, unassigned) [Compound 77] | 3.3 | 4470 | –
CCC12CC(O)c3c(C(=O)NCc4cccc(Cl)c4F)c(=O)c(O)c(n31)C(=O)N(C)C2 (single isomer, unassigned) [Compound 44] | 3.7 | 259 | –
CN1CC2(C)CC(O)c3c(C(=O)NCc4cccc(Cl)c4F)c(=O)c(O)c(n32)C1=O (stereo not drawn) [Compound 36] | 2.1 | 59.9 | –
CN1CC2(C)CC(O)c3c(C(=O)NCc4ccc(F)cc4)c(=O)c(O)c(n32)C1=O (single isomer, unassigned) [Compound 21] | – | 927 | 3.7
CCC12CC(O)c3c(C(=O)NCc4ccc(F)cc4F)c(=O)c(O)c(n31)C(=O)N(C)C2 (single isomer, unassigned) [Compound 39] | 2.1 | 322 | –
CN1CC2(C)CC(O)c3c(C(=O)NCc4ccc(F)cc4)c(=O)c(O)c(n32)C1=O (single isomer, unassigned) [Compound 22] | 3 | 227 | –
CN1CC2(C)CC(O)c3c(C(=O)NCc4c(F)cc(F)cc4F)c(=O)c(O)c(n32)C1=O (single isomer, unassigned) [Compound 25] | – | 1700 | 1.4
CC1N(C)C(=O)c2c(O)c(=O)c(C(=O)NCc3ccc(F)cc3F)c3n2C1(C)CC3O (single isomer, unassigned) [Compound 67] | 2.3 | 82.8 | –
CN1CC2(C)CC(O)c3c(C(=O)NCc4c(F)cc(F)cc4F)c(=O)c(O)c(n32)C1=O (stereo not drawn) [Compound 27] | 2.1 | 29 | –
CC1C(O)c2c(C(=O)NCc3ccc(F)cc3F)c(=O)c(O)c3n2C1(C)CN(C)C3=O (single isomer, unassigned) [Compound 76] | 2.5 | 237 | –
CCC12CC(O)c3c(C(=O)NCc4c(F)cc(F)cc4F)c(=O)c(O)c(n31)C(=O)N(C)C2 (single isomer, unassigned) [Compound 45] | – | 17.9 | 1.1
CCC12CC(O)c3c(C(=O)NCc4c(F)cc(F)cc4F)c(=O)c(O)c(n31)C(=O)N(C)C2 (single isomer, unassigned) [Compound 46] | 1.6 | 36.8 | –
CCC12CC(O)c3c(C(=O)NCc4c(F)cc(F)cc4F)c(=O)c(O)c(n31)C(=O)N(C)C2 (stereo not drawn) [Compound 47] | – | 1460 | 2.3
CCN1CC2(COC)CC(O)c3c(C(=O)NCc4ccc(F)cc4F)c(=O)c(O)c(n32)C1=O (single isomer, unassigned) [Compound 59] | 3.2 | 106 | –
CC1N(C)C(=O)c2c(O)c(=O)c(C(=O)NCc3ccc(F)cc3F)c3n2C1(C)CC3O (single isomer, unassigned) [Compound 68] | 2.4 | 45.5 | –
CCC12CC(O)c3c(C(=O)NCc4c(F)ccc(Cl)c4F)c(=O)c(O)c(n31)C(=O)N(C)C2 (single isomer, unassigned) [Compound 54] | 2.8 | 29.5 | –
CCC12CC(O)c3c(C(=O)NCc4c(F)cc(F)cc4F)c(=O)c(O)c(n31)C(=O)N(C)C2 (stereo not drawn) [Compound 48] | 2.1 | 261 | –
CC1C(O)c2c(C(=O)NCc3ccc(F)cc3F)c(=O)c(O)c3n2C1(C)CN(C)C3=O (single isomer, unassigned) [Compound 78] | 3.2 | 383 | –
CN1CC2(C)CC(O)c3c(C(=O)NCc4c(F)ccc(Cl)c4F)c(=O)c(O)c(n32)C1=O (single isomer, unassigned) [Compound 29] | – | 3130 | 1.9
CCN1CC2(CCOC(F)F)CC(O)c3c(C(=O)NCc4ccc(F)cc4F)c(=O)c(O)c(n32)C1=O (single isomer, unassigned) [Compound 2] | 6.3 | 94.9 | –
